In patent publication US7041706B2, “Method for treating crohn's disease” (priority 2002, dated 2006):

Test system: Crohn's Disease (CD)
Assay: Oral limonene regimen in two patients suffering from Crohn's Disease (case reports, Examples 2 and 3)
Conditions: for anal bleeding under prior medication regimen: Example 3 subject before limonene, combined regimen of six tablets ASACOL (mesalamine) daily and two 50 mg tablets IMURAN (azathioprine) daily
Protocol: As used herein, “treatment” shall mean temporary or permanent alleviation or elimination of CD symptoms and/or intestinal damage.
A preferred adult dose of limonene is about 400 to 1,000 milligrams, more preferably 1,000 mg, administered once daily, typically for a period of 10 to 30 days. Other dosing regimens, such as every other day and twice weekly regimens, may be desired, depending upon the patient. In fact, it will be appreciated by those of ordinary skill in the art that the amount of limonene, dosing schedule, and duration of treatment may vary depending upon the individual's age, weight, and severity of the CD.
Upon diagnosis, the patient underwent a partial small bowel surgical resection wherein about one foot of intestine and appendix were surgically removed.
To alleviate the symptoms of CD, the subject was taking the following prescriptions and over-the-counter medications: 1 Cortisone injection every six months; 1 tablet of 2.5 mg diphenoxylate/0.025 mg atropine every 8 hours as needed; twelve tablets (2.0 mg each) of IMODIUM (loperamide) every day as needed.
Prior to treatment with the limonene regimen, the subject discontinued taking their prescription and OTC medications for CD except for one cortisone injection in April 2001 and about 1 to 2 tablets of IMODIUM (lopcramide) per month. They began taking 1000 mg d-limonene (98%) on March 2001. […] The subject then began taking 400 mg of d-limonene once a week for two weeks, followed by 400-mg d-limonene twice a week for three weeks. The subject was then put on a regimen of 1000 mg d-limonene take once a week for three weeks, increasing to 1000 mg twice a week for three weeks. After that series, the subject began taking 1000 mg d-limonene every other day for three weeks. The subject continued to take 1000 mg d-limonene twice a week for maintenance.
A subject diagnosed with CD in November 1999 after undergoing a colonoscopy.
The subject began treatment with the inventive limonene method in January 2001, taking 1000 mg of d-limonene daily. […] For maintenance therapy, the patient continued to take three 1000 mg capsules of d-limonene per week.

Row | SMILES | adverse effect on first dosing (Example 2, subject with CD, 1000 mg d-limonene (98%) oral, regimen discontinued immediately) | anal bleeding (Example 2, subject with CD, during treatment, when taking 1000 mg d-limonene) | abdominal pain or cramping (Example 2 subject, during maintenance, 1000 mg d-limonene twice a week) | normal stools per day (Example 2 subject, during maintenance, 1000 mg d-limonene twice a week, about ten stools/day before treatment) [times a day] | anal bleeding (Example 3, subject with CD, about seven days after start of 1000 mg d-limonene daily) | stools per day (Example 3, subject with CD, about seven days after start of 1000 mg d-limonene daily, ten stools/day before) | anal bleeding under prior medication regimen
1 | C=C(C)[C@H]1CC=C(C)CC1 [d-limonene] | severe acid reflux | stopped almost immediately | no abdominal pain or cramping | 1 to 2 | no anal bleeding | 1–2 stools per day | 
2 | Nc1ccc(O)c(C(=O)O)c1 [ASACOL, mesalamine, reference compound] |  |  |  |  |  |  | bleeding ceased for about six to eight months, and then reoccurred
3 | Cn1cnc([N+](=O)[O-])c1Sc1ncnc2nc[nH]c12 [IMURAN, azathioprine, reference compound] |  |  |  |  |  |  | bleeding ceased for about six to eight months, and then reoccurred
